From US20110269825A1, “Modified Thromboxane A2 Receptor Promoter Sequence” (priority 2008, published 2011) come the findings set out here.

The data set has as its system HEL 92.1.7 cells. The data set can be described thus: Dual luciferase genetic reporter assay of promoter-directed luciferase expression in HEL cells. It counts as cell-based, human. The following applies: for Decrease in luciferase expression relative to Prm1B (−7962): 5′ deletion or site-directed mutation of Prm1B; for Increase in luciferase activity relative to Prm1 (−8500): 5′ deletion or site-directed mutation of Prm1; for Decrease in luciferase expression relative to Prm1HΔ (−6320): site-directed mutation within Prm1HΔ; for Luciferase expression compared with another construct, in words: comparator as named in the words or parent fragment. The procedure: HEL and EA.hy 926 cells were co-transfected with the various pGL3Basic-recombinant plasmids (2 mg), encoding firefly luciferase, along with pRL-TK (200 ng), encoding renilla luciferase, using DMRIE-C® transfection reagent. HEK293, WI-38, and 1° hAoSMCs were co-transfected with the pGL3Basic-recombinant plasmids (2 mg), along with pRL-TK (200 ng), using Effectene transfection reagent. In all cases, cells co-transfected with pRL-TK (200 ng) in the presence of either the pGL3Control vector (firefly luciferase gene under the control of the SV40 promoter; 2 mg) or the promoter-less pGL3Basic empty vector (2 mg), which served as positive and negative controls, respectively. Firefly and renilla luciferase expression was assayed some 48 h post-transfection using the Dual-Luciferase Reporter Assay System™, as described (Coyle et al., 2005). Relative firefly to renilla luciferase activity (arbitrary units) was calculated as a ratio and was expressed in relative luciferase units (RLU). To investigate the effect of over-expression of exon 5 (+ or −) or KTS (+ or −) isoforms of WT1 on Prm1-directed gene expression, HEL cells were co-transfected with either pGL3b:Prm1 or pGL3b:Prm1D (1.5 μg) plus 200 ng of pRL-TK along with either pcDNA3:WT1 (+/+), pcDNA3:WT1 (+/−), pcDNA3:WT1 (−/+), pcDNA3:WT1 (−/−) (0.5 μg), or as a control, pcDNA3 (0.5 μg). Cells were harvested 48 h post-transfection and assayed for luciferase activity, as above, or subjected to western blot or RT-PCR analysis. The plasmids pcDNA3:WT1 (+/+), pcDNA3:WT1 (+/−), pcDNA3:WT1 (−/+) and pcDNA3:WT1 (−/−) were generously donated by Dr. Charles T. Roberts JR, Oregon National Primate Research Center, Oregon, USA and have been previously described (Tajinda et al., 1999). For PMA studies, approximately 32 h post-transfection, the medium was supplemented with PMA (100 nM), with PMA (100 nM) and PD98059 (10 μM) or, as a control, with vehicle [0.1% (v/v) DMSO]. After 16 h, cells were assayed for firefly and renilla luciferase using the Dual-Luciferase Reporter Assay System™ as previously described (Coyle et al., 2005). The plasmid pCMV5-NAB1, containing the entire coding sequence for NAB1, was generously donated by Dr. Gerald Thiel, University of Saarland Medical Center, Homburg, Germany, and has been described previously (Thiel et al., 2000). To investigate the effect of over-expression of NAB1 on the PMA-mediated induction of Prm1-directed gene expression, HEL cells were transiently co-transfected with pGL3b:Prm1 (2 μg) plus pRL-TK (200 ng) along with either pCMV5 (control) or pCMV:NAB1 (1 μg). Cells were harvested 48 h post-transfection and assayed for luciferase activity, as above.
A general note: In a reporter assay the amount or activity of a reporter protein is the signal.

Marks after values point to notes of the source that are not given here.

With “Prm1B^Ets(−7870)*: Prm1B with Ets element at −7870 mutated (SEQ ID NO:19) (DNA GACAGGTGAAGTGGGGA; expressed or natural sequence; listed as Homo sapiens)”, the “Decrease in luciferase expression relative to Prm1B (−7962)” value (HEL) was 2.2 fold.

On to “Prm1^GC*^(−8281): Prm1 with GC element at −8281 mutated (SEQ ID NO:11) (DNA GCCCGGTTCCCGCCGGA; expressed or natural sequence; listed as Homo sapiens)”, for which the “Increase in luciferase activity relative to Prm1 (−8500)” value (HEL) is recorded as 1.9 fold.

With “Prm1^GC*^(−7831): Prm1 with GC element at −7831 mutated (SEQ ID NO:15) (DNA TCACTGTCCTCTCATCT; expressed or natural sequence; listed as Homo sapiens)”, the “Increase in luciferase activity relative to Prm1 (−8500)” value (HEL) is 2.1 fold.

For the molecule “Prm1HΔ^Sp1/Egr1(−6278)*: Prm1HΔ with Sp1/Egr1 element at −6278 mutated (SEQ ID NO:27) (DNA CGCAGGGTGTATGGGGCTG; expressed or natural sequence; listed as Homo sapiens)”, the “Decrease in luciferase expression relative to Prm1HΔ (−6320)” value (HEL) was “reduced luciferase activity”.

As to “Prm1D^GC*^(−6717): Prm1D with GC element at −6717 mutated (SEQ ID NO:23) (DNA TCTGTCCTATCACCCCA; expressed or natural sequence; listed as Homo sapiens)”, for the setting “HEL, 5′ deletion or site-directed mutation of Prm1D”, the “Increase in luciferase expression relative to Prm1D (−6848)” value came out at 4.8 fold.

As to “Prm1I^GC*^(−6206): Prm1I with GC element at −6206 mutated (SEQ ID NO:29) (DNA CAGCGGCCTACACCCGT; expressed or natural sequence; listed as Homo sapiens)”, the “Increase in luciferase activity relative to Prm1I (−6258)” value (HEL, 5′ deletion or mutation of Prm1I) stood at 1.3 fold.

As to “Prm1B^GATA(−7890)*: Prm1B with GATA element at −7890 mutated (SEQ ID NO:17) (DNA CTTGGTAGCTCAG; expressed or natural sequence; listed as Homo sapiens)”, under “HEL”, the “Decrease in luciferase expression relative to Prm1B (−7962)” value is listed as 1.8 fold.

Consider “Prm1BΔGata/Ets^Ets(−7805)*: Prm1BΔGata/Ets with Ets element at −7805 mutated (SEQ ID NO:21) (DNA GCCCCACATCACCCTCC; expressed or natural sequence; listed as Homo sapiens)”, for which the “Luciferase expression compared with another construct, in words” value (HEL) is given as “did not significantly affect the level of luciferase activity”.

On to “Prm1HΔ^Sp1/Egr1(−6022)*: Prm1HΔ with Sp1/Egr1 element at −6022 mutated (SEQ ID NO:35) (DNA TCTGCCCTAACCCAGCCCT; expressed or natural sequence; listed as Homo sapiens)”, for which the “Decrease in luciferase expression relative to Prm1HΔ (−6320)” value (HEL) is listed as 1.8 fold.

For “Prm1HΔ^Sp1/Egr1(−6294)*: Prm1HΔ with Sp1/Egr1 element at −6294 mutated (SEQ ID NO:25) (DNA CGAGGAACATGGCCA; expressed or natural sequence; listed as Homo sapiens)”, the “Decrease in luciferase expression relative to Prm1HΔ (−6320)” value (HEL) was 1.3 fold.

With “Prm1HΔ^NF-E2/AP1(−6080)*: Prm1HΔ with NF-E2/AP1 element at −6080 mutated (SEQ ID NO:33) (DNA CCAGACACACTCAGTTTCCCT; expressed or natural sequence; listed as Homo sapiens)”, for the setting “HEL”, the “Decrease in luciferase expression relative to Prm1HΔ (−6320)” value was “reduced luciferase activity”.

Take “Prm1^GC*^(−8345): Prm1 with GC element at −8345 mutated (SEQ ID NO:9) (DNA TGCCCCTGACCCCAC; expressed or natural sequence; listed as Homo sapiens)”: the “Increase in luciferase activity relative to Prm1 (−8500)” value (HEL) was determined as 2.0 fold.

For the molecule “Prm1HΔ^Sp1/Egr1(−6007)*: Prm1HΔ with Sp1/Egr1 element at −6007 mutated (SEQ ID NO:37) (DNA CCCTCGCAATACCCTCGG; expressed or natural sequence; listed as Homo sapiens)”, the “Decrease in luciferase expression relative to Prm1HΔ (−6320)” value (HEL) was 1.5 fold.

B1: Prm1D^WT-1(a, b, x)*: Prm1D-derived promoter with mutations at −6717, −6206 and −6800 (SEQ ID NO:124) (nucleic acid, listed as Homo sapiens)
DNA: GCTCCAAAGCCACCTCCGAGCCTCCTCAAGAGACCCTCCCATGCGATGCCACCACCCCAGCCCTCCCGGCTCACCTGCTCTGGGACCACCTTTCTCAGTCTGGCTGTGTCGTCTGGTGCACCCCCCATCCCTCTGTCCTATCACCCCACCCCTGGAAGGGGCCTCAAATATGTCCTGTATGTATTAAGCAGGGCATACTACTACTGTGTGCCGCGTTCCAGCGCACCCAGTGAATTTGGAGCCCTGGAGTCTGGGCGACCCCCGGGAGCCGATCCGCCTGGACCTGCCCCGCCCCCTCCAGGCCTTGGGTGCTGCCCAGATGGTGAATAATGCGGGCCTGGCGGCGGGAGCGCCGGGAAGAGGCCTGGCAGGGCGCTGGGCGGCTGGAGGGGCTGAGGCTCCCGAGGAAGCGCCCCTGCCACCCCTACGCGGGCCATTGCATCCCTGCCACCGGTGGCCTGGGGGTCCCAAGGGCGCCGCCTTCCCCAGAAGGCTGTAGGGTGTCCCGGCGTGCGGGGGGCACCCACTGACTCCAAGTCAGCCAGGCCCGGGCCCGAGGGGCGTGGCCAGCGCAGGGTGGGCGGGGCTGATGAGAGACAGCGGGAGACAGAGACTGGACGGAGAGAGCGAGCCGCGGGCTGCCAGCGGCCTACACCCGTCCCAGCTCGGCTTAGCCCCCGCGGACCCCTCCAGGCCGCGACCCCAGGGCGTCCTGTGCCGCCACGCCCTCCATCTGTGTGGGTCCTCTGCTGGGCCCGCCCCTGGTCACAGCCAGACTGACTCAGTTTCCCTGGGAGGTCCCGCTCGAGCCCGTCCTTCCCCTCCCTCTGCCCGCCCCCAGCCCTCGCCCCACCCTCGGCGCCCGCACATCTGCCTGCTCAGCTCCAGACGGCGCCCGGACCCCCGGGCGCGGGATCCAGCCAGGTGGGAGCCCCGCAGATGAGGTCTCTGAAG
In the case of B1, under “HEL”, the “Statistical significance of luciferase expression vs Prm1D^WT-1(a, b)*” value is “*** (p<0.001)” and the “Luciferase expression compared with another construct, in words” value was “an even stronger promoter for driving luciferase expression relative to Prm1D^WT1(a)*^(b)*”. The “Mean firefly relative to renilla luciferase activity” value (HEL cells, co-transfected with pRL-TK, 48 h post-transfection) was found to be 38.26 RLU. In addition, for the setting “HEL, ↑ = increase”, the “Statistical significance of luciferase expression vs Prm1D” value is listed as “*** (p<0.001)”.
